Data: PubChem BioAssay AID743392 (Broad Institute, 2014)
Activity calls are given as the source filed them.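 Rule for the calls: active = phosphorylated Mpk1, a fungal stress kinase, cut by at least 20% below its untreated level on western blot; inactive = the rest.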

System: Mitogen-activated protein kinase MPK1 phosphorylation (Cryptococcus neoformans H99)
Experiment: reduced phospho-Mpk1 levels in Cryptococcus cells – cell-based, single point, dry powder, imaging, mechanism study for C. neoformans antifungal project (AID 743392)
Details: C. neoformans H99, pMpk1 Western blot, 2 h; stronger effect = higher value; concentration not given here

Row | Compound | inhibition
1 | Fc1cccc(OCCn2c(=S)[nH]c3ccccc32)c1 | 52%
2 | Cc1ccc(C(C)C)c(OCCn2c(=S)[nH]c3ccccc32)c1 | 53%
3 | CC(C)c1ccc(OCCn2c(=S)[nH]c3ccccc32)cc1 | 62%
4 | Cc1cccc(OCCn2c(=S)[nH]c3c(F)cccc32)c1 | 4% (inactive)
5 | S=c1[nH]c2ccccc2n1CCOc1ccccc1Cl | 56%
